Test results reported in patent US12187684B2, “Benzimidazole derivatives as modulators of retinoid-related orphan receptor gamma (RORγ) and pharmaceutical use thereof” (Jiangsu Hengrui Medicine Co., Ltd., priority 2018, dated 2025).

Experiments:
[1] = tested on: IL-17 production, human PBMC cells; assay: IL-17 production assay using human PBMC; format: cell-based; details: Homo sapiens, PBMC, 72 h, human PBMC stimulated by cytostim for 3 days, IL-17 ELISA of supernatant
Excerpt: Test Example 2. IL-17 Production Assay Using Human PBMC
• 1. Human PBMC cells (Cat No. 70025.1, Zenbio) • 2. Lymphocyte medium (Cat No. LYMPH-1, Zenbio) • 3. TexMACS (Cat No. 130-097-196, Miltenyi) • 4. Cytostim-human (Cat No. 1130-092-173, Miltenyi) • 5. Human IL-17 ELISA (Cat No. D1700, R&D systems) • 6. Tecan Infinite M1000 plate reader (Tecan)
Experimental Procedure for IL-17 Production Assay
Cryopreserved peripheral blood human mononuclear cells (PBMCs) were rapidly thawed in warmed Lymphocyte media, and centrifuged cell suspension at 1000 rpm for 10 minutes. The supernatant was removed, and the cell pellets were gently resuspended in TexMACS media.
Human PBMC cells in TexMACS media were plated at 1×10^5 each well in triplicate. The test compounds at various concentrations or vehicle control (<0.5% DMSO) were added into cell culture. The cells were stimulated by cytostim (10 μL/mL) for 3 days in a humidified, 5% CO2 incubator at 37° C.
After incubation, the cell culture supernatant was harvested, and then removed particulates by centrifugation. Human IL-17 in the supernatant was measured using human IL-17 ELISA kit according to the manufacturer's protocol. IC50 values were determined using GraphPad Prism by plotting the compounds concentration versus percent inhibition.

RORγ LBD-GST tagged = biological target: T1, RORγ LBD-GST tagged (Homo sapiens, UniProt P51449); assay: LanthaScreen TR-FRET RORγ coactivator assay; format: biochemical; details: Fluorescein-D22 coactivator peptide, 1 hour room temperature
T1 construct: RORγ LBD-GST tagged (Cat No. RORC-114H, Creative Biomart); purchased Creative Biomart RORC-114H
T1 sequence (P51449 269-508 limits assumed): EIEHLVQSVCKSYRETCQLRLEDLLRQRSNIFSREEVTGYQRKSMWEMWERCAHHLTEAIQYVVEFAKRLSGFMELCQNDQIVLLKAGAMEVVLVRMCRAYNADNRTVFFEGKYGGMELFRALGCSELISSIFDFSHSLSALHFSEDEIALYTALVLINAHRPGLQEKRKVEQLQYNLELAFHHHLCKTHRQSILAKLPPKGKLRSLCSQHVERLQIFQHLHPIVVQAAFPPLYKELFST
Summary of the method: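 GST-tagged RORγ LBD (25 ng/reaction) was incubated in coregulator buffer D with 5 mM DTT and compound (top 3 μM, 7-fold steps, 7 doses), then with a mix containing 0.6 μM fluorescein-D22 peptide and 8 nM Tb anti-GST antibody. After 1 h at room temperature in the dark, 520/495 nm TR-FRET was read. IC50 came from log concentration versus percent inhibition.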

Row | SMILES | IC50 [1] [µM] | IC50 (RORγ LBD-GST tagged) [µM]
1 | CCS(=O)(=O)c1ccc(C(CO)c2nc3c(Cl)c(-c4ccccc4OC(F)F)c(Cl)cc3[nH]2)cc1 (stereo not drawn) [Example 29, 2-(4,6-dichloro-5-(2-(difluoromethoxy)phenyl)-1H-benzo[d]imidazol-2-yl)-2-(4-(ethylsulfonyl)phenyl)ethanol] | 0.009 | 0.269
2 | CCS(=O)(=O)c1ccc(C(O)c2nc3c(Cl)c(-c4ccccc4OC(F)F)c(Cl)cc3[nH]2)cc1 (stereo not drawn) [Example 30, (4,6-dichloro-5-(2-(difluoromethoxy)phenyl)-1H-benzo[d]imidazol-2-yl)(4-(ethylsulfonyl)phenyl)methanol] | 0.007 | 0.062
3 | CCS(=O)(=O)c1ccc(Cc2nc3c(Cl)c(-c4ccccc4OCC(F)(F)F)c(Cl)cc3[nH]2)cc1 [Example 31, 4,6-dichloro-2-(4-(ethylsulfonyl)benzyl)-5-(2-(2,2,2-trifluoroethoxy)phenyl)-1H-benzo[d]imidazole] | 0.011 | 0.01
4 | CCS(=O)(=O)c1ccc(C(CO)c2nc3c(Cl)c(-c4ccccc4OCC(F)(F)F)c(Cl)cc3[nH]2)cc1 (stereo not drawn) [Example 32, 2-(4,6-dichloro-5-(2-(2,2,2-trifluoroethoxy)phenyl)-1H-benzo[d]imidazol-2-yl)-2-(4-(ethylsulfonyl)phenyl)ethanol] | 0.007 | 0.052
5 | CCS(=O)(=O)c1ccc(C(O)c2nc3c(Cl)c(-c4ccccc4OCC(F)(F)F)c(Cl)cc3[nH]2)cc1 (stereo not drawn) [Example 33, (4,6-dichloro-5-(2-(2,2,2-trifluoroethoxy)phenyl)-1H-benzo[d]imidazol-2-yl)(4-(ethylsulfonyl)phenyl)methanol] | 0.015 | 0.031
6 | CCS(=O)(=O)c1ccc(Cc2nc3c(Cl)c(-c4ccccc4CCC(F)(F)F)c(Cl)cc3[nH]2)cc1 [Example 34, 4,6-dichloro-2-(4-(ethylsulfonyl)benzyl)-5-(2-(3,3,3-trifluoropropyl)phenyl)-1H-benzo[d]imidazole] | 0.049 | 0.016
7 | CCS(=O)(=O)c1ccc(C(O)c2nc3c(Cl)c(-c4ccccc4CCC(F)(F)F)c(Cl)cc3[nH]2)cc1 (stereo not drawn) [Example 35, (4,6-dichloro-5-(2-(3,3,3-trifluoropropyl)phenyl)-1H-benzo[d]imidazol-2-yl)(4-(ethylsulfonyl)phenyl)methanol] | 0.008 | 0.061
8 | CCS(=O)(=O)c1ccc(/C(=N\O)c2nc3c(Cl)c(-c4ccccc4OC(F)F)c(Cl)cc3[nH]2)cc1 [Example 38, (E,Z)-(4,6-dichloro-5-(2-(difluoromethoxy)phenyl)-1H-benzo[d]imidazol-2-yl)(4-(ethylsulfonyl)phenyl)methanone oxime] | 0.873 | 0.147
9 | CCS(=O)(=O)c1ccc(C(N)c2nc3c(Cl)c(-c4ccccc4OC(F)F)c(Cl)cc3[nH]2)cc1 (stereo not drawn) [Example 39, (4,6-dichloro-5-(2-(difluoromethoxy)phenyl)-1H-benzo[d]imidazol-2-yl)(4-(ethylsulfonyl)phenyl)methanamine] | 0.038 | 0.007
10 | CS(=O)(=O)c1ccc(C(CO)c2nc3c(Cl)c(-c4ccccc4C(F)(F)F)c(Cl)cc3[nH]2)cc1 (stereo not drawn) [Example 46, 2-(4,6-dichloro-5-(2-(trifluoromethyl)phenyl)-1H-benzo[d]imidazol-2-yl)-2-(4-(methylsulfonyl)phenyl)ethanol] | 0.018 | 0.048
11 | O=S(=O)(CC1CC1)c1ccc(Cc2nc3c(Cl)c(-c4ccccc4OC(F)(F)F)c(Cl)cc3[nH]2)cc1 [Example 66, 4,6-dichloro-2-(4-((cyclopropylmethyl)sulfonyl)benzyl)-5-(2-(trifluoromethoxy)phenyl)-1H-benzo[d]imidazole] | 0.01 | 0.002
12 | O=S(=O)(CC1CC1)c1ccc(C(CO)c2nc3c(Cl)c(-c4ccccc4OC(F)(F)F)c(Cl)cc3[nH]2)cc1 (stereo not drawn) [Example 67, 2-(4-((cyclopropylmethyl)sulfonyl)phenyl)-2-(4,6-dichloro-5-(2-(trifluoromethoxy)phenyl)-1H-benzo[d]imidazol-2-yl)ethanol] | 0.002 | 0.002
13 | O=S(=O)(CC1CC1)c1ccc(C(O)c2nc3c(Cl)c(-c4ccccc4OC(F)(F)F)c(Cl)cc3[nH]2)cc1 (stereo not drawn) [Example 68, (4-((cyclopropylmethyl)sulfonyl)phenyl)(4,6-dichloro-5-(2-(trifluoromethoxy)phenyl)-1H-benzo[d]imidazol-2-yl)methanol] | 0.004 | 0.03
14 | O=S(=O)(CC1CC1)c1ccc(Cc2nc3c(Cl)c(-c4ccccc4C(F)(F)F)c(Cl)cc3[nH]2)cc1 [Example 69, 4,6-dichloro-2-(4-((cyclopropylmethyl)sulfonyl)benzyl)-5-(2-(trifluoromethyl)phenyl)-1H-benzo[d]imidazole] | 0.056 | 0.007
15 | O=S(=O)(CC1CC1)c1ccc(C(CO)c2nc3c(Cl)c(-c4ccccc4C(F)(F)F)c(Cl)cc3[nH]2)cc1 (stereo not drawn) [Example 70, 2-(4-((cyclopropylmethyl)sulfonyl)phenyl)-2-(4,6-dichloro-5-(2-(trifluoromethyl)phenyl)-1H-benzo[d]imidazol-2-yl)ethanol] | 0.006 | 0.014
16 | O=S(=O)(CC1CC1)c1ccc(Cc2nc3c(Cl)c(-c4ccccc4OC(F)F)c(Cl)cc3[nH]2)cc1 [Example 72, 4,6-dichloro-2-(4-((cyclopropylmethyl)sulfonyl)benzyl)-5-(2-(difluoromethoxy)phenyl)-1H-benzo[d]imidazole] | 0.003 | 0.006
17 | O=S(=O)(CC1CC1)c1ccc(C(CO)c2nc3c(Cl)c(-c4ccccc4OC(F)F)c(Cl)cc3[nH]2)cc1 (stereo not drawn) [Example 73, 2-(4-((cyclopropylmethyl)sulfonyl)phenyl)-2-(4,6-dichloro-5-(2-(difluoromethoxy)phenyl)-1H-benzo[d]imidazol-2-yl)ethanol] | 0.001 | 0.029
18 | CCS(=O)(=O)c1ccc(C(CO)c2nc3c(Cl)c(-c4ccccc4OC(F)(F)F)c(Cl)cc3[nH]2)c(F)c1 (stereo not drawn) [Example 77, 2-(4,6-dichloro-5-(2-(trifluoromethoxy)phenyl)-1H-benzo[d]imidazol-2-yl)-2-(4-(ethylsulfonyl)-2-fluorophenyl)ethanol] | 0.017 | 0.021
19 | CCS(=O)(=O)c1ccc(C(O)c2nc3c(Cl)c(-c4ccccc4OC(F)(F)F)c(Cl)cc3[nH]2)c(F)c1 (stereo not drawn) [Example 78, (4,6-dichloro-5-(2-(trifluoromethoxy)phenyl)-1H-benzo[d]imidazol-2-yl)(4-(ethylsulfonyl)-2-fluorophenyl)methanol] | 0.069 | 0.028
20 | O=S(=O)(CC1CC1)c1ccc(Cc2nc3c(Cl)c(-c4ccccc4OC(F)(F)F)c(Cl)cc3[nH]2)c(F)c1 [Example 80, 4,6-dichloro-2-(4-((cyclopropylmethyl)sulfonyl)-2-fluorobenzyl)-5-(2-(trifluoromethoxy)phenyl)-1H-benzo[d]imidazole] | 0.013 | 0.031
21 | O=S(=O)(CC1CC1)c1ccc(C(CO)c2nc3c(Cl)c(-c4ccccc4OC(F)(F)F)c(Cl)cc3[nH]2)c(F)c1 (stereo not drawn) [Example 81, 2-(4-((cyclopropylmethyl)sulfonyl)-2-fluorophenyl)-2-(4,6-dichloro-5-(2-(trifluoromethoxy)phenyl)-1H-benzo[d]imidazol-2-yl)ethanol] | 0.003 | 0.035
22 | CCS(=O)(=O)c1ccc(C(CO)c2nc3c(Cl)c(-c4ccccc4OC(F)F)c(Cl)cc3[nH]2)c(F)c1 (stereo not drawn) [Example 84, 2-(4,6-dichloro-5-(2-(difluoromethoxy)phenyl)-1H-benzo[d]imidazol-2-yl)-2-(4-(ethylsulfonyl)-2-fluorophenyl)ethanol] | 0.013 | 0.019
23 | CCS(=O)(=O)c1ccc(Cc2nc3c(Cl)c(-c4ccccc4OC(F)(F)F)c(Cl)cc3[nH]2)c(Cl)c1 [Example 86, 4,6-dichloro-2-(2-chloro-4-(ethylsulfonyl)benzyl)-5-(2-(trifluoromethoxy)phenyl)-1H-benzo[d]imidazole] | 0.023 | 0.075
24 | O=S(=O)(CC1CC1)c1ccc(C(CO)c2nc3c(Cl)c(-c4ccccc4OC(F)F)c(Cl)cc3[nH]2)c(F)c1 (stereo not drawn) [Example 99, 2-(4-((cyclopropylmethyl)sulfonyl)-2-fluorophenyl)-2-(4,6-dichloro-5-(2-(difluoromethoxy)phenyl)-1H-benzo[d]imidazol-2-yl)ethanol] | 0.0024 | 0.025
